Results: patent publication US20130089641A1
Read-outs that look alike come from different tables or passages of the source. Values belong to the compound of their own block, whether it stands above or below them.

Tests used:
[1] = NaVC consumption on ultra heat treat of the formulated soymilk powder; assay type: physicochemical
Description: As shown in Table (26), the formulated soymilk powder consists of NaVC (sodium vitamin C), lactic acid bacteria, saccharomycete, and maltodextrin, in which the lactic acid bacteria is NTU 101 lactic acid bacteria powder, the saccharomycete is yeast powder with vitamin B complex. Moreover, it must note that, when manufacturing the formulated soymilk powder, it must pre-add 25% NaVC in the formulated soymilk powder because there has 25% NaVC consumption when processing ultra heat treat of the formulated soymilk powder.

[2] = first experiment: in vitro digestion and dialysis of soymilk with ascorbic acid or calcium ascorbate, releasable iron; assay type: in vitro ADME
Description: For improving that, a first experiment in the present invention is done, that is, to respectively add the ascorbic acid and the calcium ascorbate into the soymilk and determine the concentration of the releasable iron thereof. Please refer to following Table (1), which is a statistical table of the releasable iron concentration in the soymilk.

[3] = fifth experiment: releasable iron in soymilk with 30 ppm ferrous gluconate and VC, NaVC, KVC or CaVC additive; assay type: in vitro ADME; conditions: for average iron release rate / average relative release rate: soymilk with 30 ppm ferrous gluconate
[4] = second experiment: releasable iron in soymilk with iron salts added by concentration gradients; conditions: for initially inhibiting concentration: point where releasable iron starts to rise with additive dosage
[5] = aqueous solution of ferrous sulfate with 100 ppm iron ions
[6] = soymilk with 20 ppm iron as ferrous sulfate
[7] = sixth experiment: releasable iron in soymilk with 30 ppm ferrous gluconate and sodium isoascorbate additive; assay type: in vitro ADME; conditions: soymilk with 30 ppm ferrous gluconate
Description: However, everyone knows that vitamin C includes a stereoisomer called isoascorbic acid, and the physical and chemical properties of the isoascorbic acid are similar to the vitamin C.

[8] = background, researches; cited from earlier work
[9] = average additive dosage of ascorbic acid ions 25 ppm
[10] = average additive dosage of ascorbic acid ions 50 ppm
[11] = average additive dosage of ascorbic acid ions 75 ppm
[12] = average additive dosage of ascorbic acid ions 100 ppm
[13] = average additive dosage of ascorbic acid ions 125 ppm
[14] = average additive dosage of ascorbic acid ions 150 ppm
[15] = average additive dosage of ascorbic acid ions 175 ppm
[16] = average additive dosage of ascorbic acid ions 200 ppm
[17] = average additive dosage of ascorbic acid ions 225 ppm
[18] = average additive dosage of ascorbic acid ions 250 ppm
[19] = average additive dosage of ascorbic acid ions 275 ppm
[20] = average additive dosage of ascorbic acid ions 300 ppm
[21] = average additive dosage of ascorbic acid ions 325 ppm
[22] = average additive dosage of ascorbic acid ions 350 ppm
[23] = average additive dosage of ascorbic acid ions 375 ppm
[24] = average additive dosage of ascorbic acid ions 400 ppm
[25] = average additive dosage of ascorbic acid ions 425 ppm
[26] = average additive dosage of ascorbic acid ions 450 ppm
[27] = average additive dosage of ascorbic acid ions 475 ppm
[28] = average additive dosage of ascorbic acid ions 500 ppm
[29] = sodium isoascorbate 28.6 mg/100 mL
[30] = sodium isoascorbate 57.1 mg/100 mL
[31] = sodium isoascorbate 85.7 mg/100 mL
[32] = sodium isoascorbate 114.3 mg/100 mL
[33] = sodium isoascorbate 142.9 mg/100 mL
[34] = sodium isoascorbate 171.4 mg/100 mL
[35] = sodium isoascorbate 200.0 mg/100 mL
[36] = sodium isoascorbate 228.6 mg/100 mL
[37] = sodium isoascorbate 257.1 mg/100 mL
[38] = sodium isoascorbate 285.7 mg/100 mL
[39] = sodium isoascorbate 314.3 mg/100 mL
[40] = sodium isoascorbate 342.9 mg/100 mL
[41] = sodium isoascorbate 371.4 mg/100 mL
[42] = sodium isoascorbate 400.0 mg/100 mL
[43] = sodium isoascorbate 428.6 mg/100 mL
[44] = sodium isoascorbate 457.1 mg/100 mL
[45] = sodium isoascorbate 485.7 mg/100 mL
[46] = sodium isoascorbate 514.3 mg/100 mL
[47] = sodium isoascorbate 542.9 mg/100 mL
[48] = sodium isoascorbate 571.4 mg/100 mL
[49] = soymilk, equivalent additive dosage 175 mg/100 mL
[50] = soymilk with 30 ppm iron as ferrous gluconate

Compound: O=C1O[C@H]([C@@H](O)CO)C(O)=C1O [VC, ascorbic acid]
- iron release rate ([2]; 75 mg/100 mL): 51.75%
- relative release rate ([2]; 75 mg/100 mL): 102.7%
- releasable iron ([2]; 75 mg/100 mL): 2.07 ppm
- iron release rate ([2]; 175 mg/100 mL): 78.75%
- relative release rate ([2]; 175 mg/100 mL): 156.28%
- releasable iron ([2]; 175 mg/100 mL): 3.15 ppm

Compound: O.O.O.O.O.O.O.O=S(=O)([O-])[O-].[Fe+2] [ferrous sulfate, iron(II) sulfate heptahydrate]
- concentration of releasable iron ([4]; additive dosage of iron 10 ppm): 1.56 ppm
- concentration of releasable iron ([4]; additive dosage of iron 20 ppm): 1.76 ppm
- concentration of releasable iron ([4]; additive dosage of iron 30 ppm): 2.47 ppm
- concentration of releasable iron ([4]; additive dosage of iron 40 ppm): 2.62 ppm
- concentration of releasable iron ([4]; additive dosage of iron 50 ppm): 2.75 ppm
- concentration of releasable iron ([4]; additive dosage of iron 60 ppm): 3.27 ppm
- concentration of releasable iron ([4]; additive dosage of iron 70 ppm): 3.72 ppm
- initially inhibiting concentration [4]: 20 ppm
- iron ions naturally inhibited [5]: 49.61%
- iron ions released after processing by gastric and intestinal fluid [5]: 50.39%
- releasable iron concentration before adding the ascorbic acid iron [6]: 1.90 ppm
- the most effective additive dosage for ascorbic acid iron [6]: 100 mg/100 ml
- release promoting rate of iron ([6]; after/before adding the ascorbic acid iron): 389%
- releasable iron concentration after adding the ascorbic acid iron ([6]; at the most effective additive dosage 100): 7.54 ppm

Compound: O=C1O[C@H]([C@H](O)CO)C(O)=C1O [isoascorbic acid ions]
- release promoting rate for iron compared with ascorbic acid ions ([7]; sodium isoascorbate additive): almost the same

Compound: calcium ascorbate [CaVC]
- iron release rate [2, 49]: 48.75%
- releasable iron [2, 49]: 1.95 ppm
- relative release rate ([2]; soymilk, equivalent additive dosage 175 mg/100 mL, relative to ferrous sulfate aqueous solution): 96.75%

Compound: ferrous gluconate
- concentration of releasable iron ([4]; additive dosage of iron 10 ppm): 1.61 ppm
- concentration of releasable iron ([4]; additive dosage of iron 20 ppm): 2.05 ppm
- concentration of releasable iron ([4]; additive dosage of iron 30 ppm): 2.08 ppm
- concentration of releasable iron ([4]; additive dosage of iron 40 ppm): 2.68 ppm
- concentration of releasable iron ([4]; additive dosage of iron 50 ppm): 3.15 ppm
- concentration of releasable iron ([4]; additive dosage of iron 60 ppm): 4.06 ppm
- concentration of releasable iron ([4]; additive dosage of iron 70 ppm): 3.98 ppm
- concentration of releasable iron ([4]; additive dosage of iron 75 ppm): 3.87 ppm
- initially inhibiting concentration [4]: 30 ppm
- releasable iron concentration before adding the ascorbic acid iron [3, 50]: 2.08 ppm
- the most effective additive dosage for ascorbic acid iron [3, 50]: 50 mg/100 ml
- release promoting rate of iron ([3]; soymilk with 30 ppm iron as ferrous gluconate, after/before adding the ascorbic acid iron): 458%
- releasable iron concentration after adding the ascorbic acid iron ([3]; soymilk with 30 ppm iron as ferrous gluconate, at the most effective additive dosage 50): 9.53 ppm

Compound: heme iron
- average absorption rate [8]: 25%

Results, then the compound that gave them:

- NaVC consumption when processing ultra heat treat [1]: 25%
Compound: O=C1O[C@H]([C@@H](O)CO)C([O-])=C1O.[Na+] [NaVC, sodium ascorbate]

- average iron release rate [3, 9]: 16.90%
- average relative release rate [3, 9]: 33.55%
- average iron release rate [3, 10]: 23.17%
- average relative release rate [3, 10]: 45.97%
- average iron release rate [3, 11]: 27.88%
- average relative release rate [3, 11]: 55.33%
- average iron release rate [3, 12]: 32.08%
- average relative release rate [3, 12]: 63.67%
- average iron release rate [3, 13]: 33.35%
- average relative release rate [3, 13]: 66.18%
- average iron release rate [3, 14]: 34.92%
- average relative release rate [3, 14]: 69.30%
- average iron release rate [3, 15]: 35.85%
- average relative release rate [3, 15]: 71.14%
- average iron release rate [3, 16]: 36.86%
- average relative release rate [3, 16]: 73.15%
- average iron release rate [3, 17]: 38.23%
- average relative release rate [3, 17]: 75.86%
- average iron release rate [3, 18]: 39.40%
- average relative release rate [3, 18]: 78.18%
- average iron release rate [3, 19]: 40.57%
- average relative release rate [3, 19]: 80.51%
- average iron release rate [3, 20]: 42.29%
- average relative release rate [3, 20]: 83.93%
- average iron release rate [3, 21]: 43.63%
- average relative release rate [3, 21]: 86.59%
- average iron release rate [3, 22]: 44.67%
- average relative release rate [3, 22]: 88.66%
- average iron release rate [3, 23]: 45.61%
- average relative release rate [3, 23]: 90.52%
- average iron release rate [3, 24]: 46.28%
- average relative release rate [3, 24]: 91.85%
- average iron release rate [3, 25]: 47.22%
- average relative release rate [3, 25]: 93.72%
- average iron release rate [3, 26]: 47.86%
- average relative release rate [3, 26]: 94.99%
- average iron release rate [3, 27]: 48.99%
- average relative release rate [3, 27]: 97.23%
- average iron release rate [3, 28]: 50.01%
- average relative release rate [3, 28]: 99.24%
Compound: O=C1O[C@H]([C@@H](O)CO)C(O)=C1O [ascorbic acid ions]

- iron release rate [7, 29]: 23.37%
- relative release rate [7, 29]: 46.37%
- releasable iron concentration [7, 29]: 7.01 ppm
- iron release rate [7, 30]: 28.20%
- relative release rate [7, 30]: 55.96%
- releasable iron concentration [7, 30]: 8.46 ppm
- iron release rate [7, 31]: 33.67%
- relative release rate [7, 31]: 66.81%
- releasable iron concentration [7, 31]: 10.10 ppm
- iron release rate [7, 32]: 34.23%
- relative release rate [7, 32]: 67.94%
- releasable iron concentration [7, 32]: 10.27 ppm
- iron release rate [7, 33]: 36.17%
- relative release rate [7, 33]: 71.77%
- releasable iron concentration [7, 33]: 10.85 ppm
- iron release rate [7, 34]: 38.73%
- relative release rate [7, 34]: 76.87%
- releasable iron concentration [7, 34]: 11.62 ppm
- iron release rate [7, 35]: 41.53%
- relative release rate [7, 35]: 82.42%
- releasable iron concentration [7, 35]: 12.46 ppm
- iron release rate [7, 36]: 41.90%
- relative release rate [7, 36]: 83.15%
- releasable iron concentration [7, 36]: 12.57 ppm
- iron release rate [7, 37]: 43.20%
- relative release rate [7, 37]: 85.73%
- releasable iron concentration [7, 37]: 12.96 ppm
- iron release rate [7, 38]: 45.80%
- relative release rate [7, 38]: 90.89%
- releasable iron concentration [7, 38]: 13.74 ppm
- iron release rate [7, 39]: 46.30%
- relative release rate [7, 39]: 91.88%
- releasable iron concentration [7, 39]: 13.89 ppm
- iron release rate [7, 40]: 47.77%
- relative release rate [7, 40]: 94.79%
- releasable iron concentration [7, 40]: 14.33 ppm
- iron release rate [7, 41]: 48.60%
- relative release rate [7, 41]: 96.45%
- releasable iron concentration [7, 41]: 14.58 ppm
- iron release rate [7, 42]: 48.73%
- relative release rate [7, 42]: 96.71%
- releasable iron concentration [7, 42]: 14.62 ppm
- iron release rate [7, 43]: 49.30%
- relative release rate [7, 43]: 97.84%
- releasable iron concentration [7, 43]: 14.79 ppm
- iron release rate [7, 44]: 49.23%
- relative release rate [7, 44]: 97.70%
- releasable iron concentration [7, 44]: 14.77 ppm
- iron release rate [7, 45]: 49.60%
- relative release rate [7, 45]: 98.43%
- releasable iron concentration [7, 45]: 14.88 ppm
- iron release rate [7, 46]: 49.90%
- relative release rate [7, 46]: 99.03%
- releasable iron concentration [7, 46]: 14.97 ppm
- iron release rate [7, 47]: 50.90%
- relative release rate [7, 47]: 101.01%
- releasable iron concentration [7, 47]: 15.27 ppm
- iron release rate [7, 48]: 50.37%
- relative release rate [7, 48]: 99.95%
- releasable iron concentration [7, 48]: 15.11 ppm
Compound: O=C1O[C@H]([C@H](O)CO)C([O-])=C1O.[Na+] [sodium isoascorbate]
